According to US20220125763A1, “COMPOSITIONS PROVIDING ENHANCED ANTIBACTERIAL ACTIVITY AGAINST GRAM-POSITIVE BACTERIA AND USE THEREOF” (ANIFERA LIMITED, priority 2019, published 2022):

Assays:
Assay in all cases: Minimum inhibitory concentration of antibiotic with or without imidazole compound
Format in all cases: cell-based
Staphylococcus aureus B8 = conditions: S. aureus B8
Description: (§1) Exemplary embodiments of a 2-(substituted-amino)-imidazole compound in combination with an antibiotic compound were tested to evaluate the effect on minimum inhibitory concentration (MIC).
(§2) In these experiments, a frozen stock of the bacterial strain was streaked onto a sterile brain heart infusion agar plate and incubated at 37° C. for 16-20 hours. After the incubation period, three to five well-isolated bacterial colonies of the same morphologic type were taken from the brain heart infusion agar plate culture and used to inoculate, using a sterile loop, a tube containing 4 mL to 5 mL of cation adjusted Mueller Hinton (MHII) broth. The culture was allowed to grow in a shaking incubator at 220 rpm at 37° C. until the culture reached logarithmic phase, as determined by the measuring of and achieving an optical density (OD) of 0.3 to 0.5 measured at 600 nm. The bacterial concentration of the culture was then adjusted with the addition of MHII broth to achieve the equivalent of 1×10^6 colony-forming unit (CFU)/mL using the approximation that 1×10^9 CFU/mL is equal to OD600 nm=1. Cells were then treated with the designated amount of test compound (shown in Table 1) or a solvent control (dimethyl sulfoxide) for 30 minutes at ambient conditions. Cells were then transferred into 96-well round bottom plates and exposed to 2-fold serial dilutions of the denoted antibiotic.

[1] = tested on: Staphylococcus aureus B12; conditions: S. aureus B12
Description: as §1, §2

[2] = tested on: Coagulase-negative staphylococci CN74
Description: as §1, §2

[3] = tested on: Coagulase-negative staphylococci CN58
Description: as §1, §2

[4] = tested on: Coagulase-negative staphylococci CN8
Description: as §1, §2

[5] = tested on: Staphylococcus aureus Xen30; conditions: S. aureus Xen30
Description: as §1, §2

## CC(C)Nc1ncc(-c2cccc(NC(=O)Nc3ccc(Cl)c(Cl)c3)c2)[nH]1 [Compound 1, 1-(3,4-dichlorophenyl)-3-(3-(2-(Isopropylamino)-1H-Imidazol-5-yl)phenyl)urea]
Staphylococcus aureus B8; +Compound 1 at 2 μM
  Minimum Inhibitory Concentration of penicillin: 2 µg/mL
[1]; +Compound 1 at 2 μM
  Minimum Inhibitory Concentration of penicillin: 1 µg/mL
[2]; +Compound 1 at 2 μM
  Minimum Inhibitory Concentration of penicillin: 0.5 µg/mL
[3]; +Compound 1 at 2 μM
  Minimum Inhibitory Concentration of penicillin: 0.125 µg/mL
[4]; +Compound 1 at 2 μM
  Minimum Inhibitory Concentration of penicillin: 0.125 µg/mL
[5]; +Compound 1 at 4 μM
  Minimum Inhibitory Concentration of penicillin: 8 µg/mL

## penicillin
Staphylococcus aureus B8; No imidazole compound
  Minimum Inhibitory Concentration of penicillin: 64 µg/mL
[1]; No imidazole compound
  Minimum Inhibitory Concentration of penicillin: 16 µg/mL
[2]; No imidazole compound
  Minimum Inhibitory Concentration of penicillin: 8 µg/mL
[3]; No imidazole compound
  Minimum Inhibitory Concentration of penicillin: 32 µg/mL
[4]; No imidazole compound
  Minimum Inhibitory Concentration of penicillin: 2 µg/mL
[5]; No imidazole compound
  Minimum Inhibitory Concentration of penicillin: 128 µg/mL

## Cc1onc(-c2ccccc2)c1C(=O)N[C@@H]1C(=O)N2[C@@H]1SC(C)(C)[C@@H]2C(=O)O [Oxacillin]
[5]; Staphylococcus aureus, No imidazole compound, read-out: Minimum Inhibitory Concentration of Oxacillin
  MIC: 128 mg/L
